{"source": "patent US12121581B2", "about": "“Method of photodynamic therapy” (OSLO UNIVERSITETSSYKEHUS HF, priority 2018, dated 2024)", "key": {"U87 cells": {"tested_on": "U87 cells", "test": "LUMIBLAST cell viability, MTT assay", "type": "cell-based", "protocol": "Efficiency of the luminol derivatives was investigated. The initial derivative tested was HD92 (also referred to herein as “AP47”). U87 cells were inoculated in 96 well plates. The cells were then divided into the following groups (at least 6 parallels per group): CTRL (media only), ALA CTRL (2 mM), HD92 CTRL (500 μM) and the LUMIBLAST group (2 mM 5-ALA and 500 μM HD92). Correspondingly, MCF7 cells were inoculated in 96 well plates and left to grow overnight. The cells were then divided into the following groups (at least 6 parallels per group): CTRL (media only), Hypocrellin A CTRL (HYPA 7 μM), HD92 CTRL (500 μM) and the LUMIBLAST group (7 μM HYPA and 500 μM HD92). These four groups were incubated in media with and without 10 μM FeSO4 in the case of experiments with HYPA. […] In brief, all cell groups were incubated with 0.5 mg/mL MTT for 3 hours. The MTT media were subsequently replaced with DMSO (100 μL) to solubilise the formazan. The wells were read for absorbance at 562 nm using a Tecan Spark OM plate reader. The cytotoxicity was determined as the percentage of control (media only) absorbance following subtraction of blank values from wells without cells.\nMCF7 and U87 cells were inoculated in 96 well plates. The cells were then divided into the following groups (at least 6 parallels per group): CTRL (media only), HYPA CTRL (3 μM), DZ168 CTRL (5, 10, 20 and 30 μM), and the LUMIBLAST combinations (3 μM HYPA+DZ168 5-30 μM). These cell group incubations were also repeated in media containing 100 μM CuSO4. […]\nMCF7 and U87 cells were inoculated in 96 well plates. The cells were then divided into the following groups (at least 6 parallels per group):CTRL (media only), HYPA CTRL (5 μM), DZ167 CTRL (25-200 μM), and the LUMIBLAST combinations (5 μM HYPA+DZ167 25-200 μM). These incubations were performed in media containing 50 μM CuSO4. […]\nThe subcellular localisation of cercosporin together with that of synthesised derivatives DZ203 (short alkyl linker) and DZ196 (oligoPEG linker) was investigated. U87 cells were inoculated in 96 well plates. The cells were then divided into the following groups (at least 6 parallels per group). CTRL (media only), Cercosporin CTRL (3 μM), DZ203 CTRL (200 μM), DZ196 CTRL (500 μM) and the LUMIBLAST combinations (3 μM cercosporin+DZ203 200 μM or 3 μM cercosporin DZ196 500 μM). […]"}, "MCF7 cells": {"tested_on": "MCF7 cells", "test": "LUMIBLAST cell viability, MTT assay", "type": "cell-based", "protocol": "(§1) Efficiency of the luminol derivatives was investigated. The initial derivative tested was HD92 (also referred to herein as “AP47”). U87 cells were inoculated in 96 well plates. The cells were then divided into the following groups (at least 6 parallels per group): CTRL (media only), ALA CTRL (2 mM), HD92 CTRL (500 μM) and the LUMIBLAST group (2 mM 5-ALA and 500 μM HD92). Correspondingly, MCF7 cells were inoculated in 96 well plates and left to grow overnight. The cells were then divided into the following groups (at least 6 parallels per group): CTRL (media only), Hypocrellin A CTRL (HYPA 7 μM), HD92 CTRL (500 μM) and the LUMIBLAST group (7 μM HYPA and 500 μM HD92). These four groups were incubated in media with and without 10 μM FeSO4 in the case of experiments with HYPA. Following incubation of the cells with their respective drug strategies overnight (˜20 hours), the cell groups were tested for their viability using a standard MTT assay. In brief, all cell groups were incubated with 0.5 mg/mL MTT for 3 hours. The MTT media were subsequently replaced with DMSO (100 μL) to solubilise the formazan. The wells were read for absorbance at 562 nm using a Tecan Spark OM plate reader. The cytotoxicity was determined as the percentage of control (media only) absorbance following subtraction of blank values from wells without cells.\nMCF7 and U87 cells were inoculated in 96 well plates. The cells were then divided into the following groups (at least 6 parallels per group): CTRL (media only), HYPA CTRL (3 μM), DZ168 CTRL (5, 10, 20 and 30 μM), and the LUMIBLAST combinations (3 μM HYPA+DZ168 5-30 μM). These cell group incubations were also repeated in media containing 100 μM CuSO4. Following incubation of the cells with their respective drug strategies overnight (˜20 hours), the cell groups were tested for their viability using the MTT assay."}, "[1]": {"tested_on": "MDA-MB-231 breast carcinoma cells", "test": "LUMIBLAST cell viability, MTT assay", "type": "cell-based", "conditions": "1.2 mM 5-ALA + DZ203 400 μM, 100 μM CuSO4, ~20 hours", "protocol": "as §1\nMDA-MB-231 cells were inoculated in 96 well plates. […]"}, "cells": {"tested_on": "cells", "conditions": "luminol together with transferrin-haematoporphyrin conjugates; cited from earlier work"}}, "data": [{"smiles": "O=c1[nH][nH]c(=O)c2c(NCCOCCOCC[P+](c3ccccc3)(c3ccccc3)c3ccccc3)cccc12.[I-]", "note": "[DZ196, (2-(2-(2-((1,4-dioxo-1,2,3,4-tetrahydrophthalazin-5-yl)amino)ethoxy)ethoxy)ethyl)triphenylphosphonium iodide]", "values": [{"measurement": "LUMIBLAST effect (MTT viability)", "setting": "U87 cells; U87, 3 μM cercosporin + DZ196 500 μM, without Cu", "result": "smaller effect"}]}, {"smiles": "O=C(CCCCC[P+](c1ccccc1)(c1ccccc1)c1ccccc1)Nc1cccc2c(=O)[nH][nH]c(=O)c12.[Br-]", "note": "[AP47, (6-((1,4-dioxo-1,2,3,4-tetrahydrophthalazin-5-yl)amino)-6-oxohexyl)triphenylphosphonium bromide]", "values": [{"measurement": "combinatory cytotoxic effect (MTT viability)", "setting": "U87 cells; U87, 2 mM 5-ALA and 500 μM HD92, ~20 hours, relative to HD92 control", "result": "combinatory cytotoxic effect is profoundly significant"}, {"measurement": "toxicity of the derivative alone (MTT viability)", "setting": "U87 cells; U87, HD92 CTRL 500 μM, ~20 hours", "result": "sub-toxic but very near the margins of chemical toxicity"}, {"measurement": "combinatory cytotoxic effect (MTT viability)", "setting": "MCF7 cells; 7 μM HYPA and 500 μM HD92, 10 μM FeSO4, ~20 hours, relative to HD92 control", "result": "combinatory cytotoxic effect is profoundly significant"}, {"measurement": "toxicity of the derivative alone (MTT viability)", "setting": "MCF7 cells; HD92 CTRL 500 μM, ~20 hours", "result": "sub-toxic but very near the margins of chemical toxicity"}]}, {"smiles": "NCC(=O)CCC(=O)O", "note": "[Compound 5-ALA, 5-aminolevulinic acid, reference compound]", "values": [{"measurement": "efficiency of photosensitizer in producing LUMIBLAST effects", "setting": "U87 cells; 2 mM 5-ALA with 500 μM HD92 in U87, compared with HYPA in MCF7 with FeSO4", "result": "less efficient in producing LUMIBLAST effects than HYPA"}]}, {"smiles": "O=c1[nH][nH]c(=O)c2c(NCCCCCCCCCC[P+](c3ccccc3)(c3ccccc3)c3ccccc3)cccc12.[I-]", "note": "[DZ168, (10-((1,4-dioxo-1,2,3,4-tetrahydrophthalazin-5-yl)amino)decyl)triphenylphosphonium iodide]", "values": [{"measurement": "toxicity (MTT viability)", "setting": "U87 cells; U87, 3 μM HYPA + DZ168 5-30 μM, 100 μM CuSO4, ~20 hours", "result": "not affected"}, {"measurement": "toxicity (MTT viability)", "setting": "MCF7 cells; 3 μM HYPA + DZ168 5-30 μM, 100 μM CuSO4, ~20 hours", "result": "enhanced toxicity"}]}, {"smiles": "O=c1[nH][nH]c(=O)c2c(NCCC[P+](c3ccccc3)(c3ccccc3)c3ccccc3)cccc12.[I-]", "note": "[DZ203, (3-((1,4-dioxo-1,2,3,4-tetrahydrophthalazin-5-yl)amino)propyl)triphenylphosphonium iodide]", "values": [{"measurement": "LUMIBLAST effect (MTT viability)", "setting": "U87 cells; U87, 3 μM cercosporin + DZ203 200 μM, 24 hours, presence of Cu (150 μM)", "result": "very profound effect"}, {"measurement": "LUMIBLAST effect (MTT viability)", "setting": "[1]", "result": "substantial synergy"}]}, {"smiles": "Nc1cccc2c(=O)[nH][nH]c(=O)c12", "note": "[luminol]", "values": [{"measurement": "cytotoxicity", "setting": "cells", "result": 95, "unit": "%"}]}, {"smiles": "O=c1[nH][nH]c(=O)c2c(NCCCCCC[P+](c3ccccc3)(c3ccccc3)c3ccccc3)cccc12.[I-]", "note": "[DZ167, (6-((1,4-dioxo-1,2,3,4-tetrahydrophthalazin-5-yl)amino)hexyl)triphenylphosphonium iodide]", "values": [{"measurement": "LUMIBLAST effect (MTT viability)", "setting": "U87 cells; U87, 200 μM DZ167, 5 μM HYPA and 50 μM CuSO4, ~20 hours", "result": "synergistic effect"}]}]}
